Read-outs that look alike come from different tables or passages of the source.
What was measured:
[1] = Bioavailability and CSF/brain/plasma distribution after PO dosing; type: in vivo, Sprague Dawley rats; conditions: for Kp / bioavailability: Sprague Dawley, rat, PO administration (Compound A 10 mg/kg); for bioavailability: plasma, read-out: Bioavailablity (% F); for oral bioavailability, in words / proportion able to get to the CSF and brain, in words: comparative statement, comparator not named
Protocol: The bioavailablity of Compound A was investigated following PO administration. CSF, brain and plasma samples were analyzed following dosing with compound A (10 mg/kg). The following table indicates the bioavailablity and CSF/plasma and brain/plasma ratios.
Sprague Dawley rats were dosed intravenously with 2 mg/kg of Compound A. A second group of Sprague Dawley rats was dosed per os with 10 mg/kg of compound A. Plasma samples were drawn over a 24 h period and analyzed for Compound A.
In another experiment, Sprague Dawley rats were dosed per os with 10 mg/kg of Compound A. Plasma, brain, and CSF samples were analyzed at various time points over a 24 hour period. […]

[2] = Plasma stability, rat; type: in vitro ADME
Protocol: (§1) Microsomal and plasma stability of Compound A was investigated. The following table indicates the percent of Compound A remaining after 60 minutes.
(§2) Microsomal and plasma stability of Compound B was investigated. The following table indicates the percent of Compound B remaining after 60 minutes.

[3] = biological target: NMDAR2D (Homo sapiens, UniProt O15399); experiment: Potentiation of [3H]MK-801 binding, NMDAR2D; set-up: species or system rat; conditions: for Conclusion / % 1 mM Glycine: NMDAR2D binding profile; for % 1 mM Glycine: relative to 1 mM glycine; for potentiation of [3H]MK-801 binding, subtype preference in words: NR2D, FIG. 2 / FIG. 6
Sequence of NMDAR2D (O15399 28-1336, species assumed, other chains not shown): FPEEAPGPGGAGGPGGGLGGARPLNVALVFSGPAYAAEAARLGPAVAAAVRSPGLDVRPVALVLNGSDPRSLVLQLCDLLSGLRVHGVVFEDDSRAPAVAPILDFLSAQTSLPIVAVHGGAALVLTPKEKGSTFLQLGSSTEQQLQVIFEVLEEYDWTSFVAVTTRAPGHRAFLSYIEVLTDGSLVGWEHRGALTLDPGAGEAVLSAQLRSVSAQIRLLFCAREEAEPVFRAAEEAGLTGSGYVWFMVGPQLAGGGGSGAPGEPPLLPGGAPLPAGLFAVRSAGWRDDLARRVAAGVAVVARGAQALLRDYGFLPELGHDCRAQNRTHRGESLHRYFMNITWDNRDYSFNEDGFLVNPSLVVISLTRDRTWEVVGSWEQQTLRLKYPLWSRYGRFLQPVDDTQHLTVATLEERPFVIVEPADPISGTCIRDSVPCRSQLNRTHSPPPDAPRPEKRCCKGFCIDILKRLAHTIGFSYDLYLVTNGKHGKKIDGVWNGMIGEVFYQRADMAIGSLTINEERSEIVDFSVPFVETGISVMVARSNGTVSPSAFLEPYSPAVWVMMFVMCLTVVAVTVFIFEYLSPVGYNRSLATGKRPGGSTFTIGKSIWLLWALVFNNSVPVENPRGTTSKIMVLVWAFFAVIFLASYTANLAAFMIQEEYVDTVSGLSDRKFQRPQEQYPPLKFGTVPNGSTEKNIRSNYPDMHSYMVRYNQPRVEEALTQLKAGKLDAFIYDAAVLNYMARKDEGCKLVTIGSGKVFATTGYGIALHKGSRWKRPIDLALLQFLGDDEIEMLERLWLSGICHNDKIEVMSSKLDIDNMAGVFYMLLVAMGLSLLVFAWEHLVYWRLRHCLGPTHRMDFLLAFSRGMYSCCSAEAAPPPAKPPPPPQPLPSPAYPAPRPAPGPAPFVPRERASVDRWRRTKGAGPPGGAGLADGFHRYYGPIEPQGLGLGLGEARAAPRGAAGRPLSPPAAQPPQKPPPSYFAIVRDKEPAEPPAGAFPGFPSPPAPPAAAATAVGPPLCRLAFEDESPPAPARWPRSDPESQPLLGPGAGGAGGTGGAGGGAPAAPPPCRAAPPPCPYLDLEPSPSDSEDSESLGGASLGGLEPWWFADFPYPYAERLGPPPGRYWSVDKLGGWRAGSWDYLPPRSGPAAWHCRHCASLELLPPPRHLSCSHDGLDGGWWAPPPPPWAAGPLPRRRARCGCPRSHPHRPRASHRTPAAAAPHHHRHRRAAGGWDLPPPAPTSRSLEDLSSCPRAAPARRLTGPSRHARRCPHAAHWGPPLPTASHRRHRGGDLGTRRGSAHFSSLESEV
Protocol: (§3) Assays were conducted as described by Moskal et al., “GLYX-13: a monoclonal antibody-derived peptide that acts as an N-rnethyl-D-aspartate receptor modulator,” Neuropharmacology, 49, 1077-87, 2005. The potentiation of [^3H]MK-801 binding (5 nrM; 22.5 Ci/mmol) to well washed rat cortical membranes (200 μg) was measured under non-equilibrium conditions (15 min @ 25° C.) in the presence of increasing concentrations of Compound A.
(§4) Assays were conducted as described above in Example 5, by Moskal et al. (2005).

[4] = Plasma stability, human; type: in vitro ADME
Protocol: as §1, §2

[5] = biological target: NMDAR2A (Homo sapiens, UniProt Q12879); experiment: Potentiation of [3H]MK-801 binding, NMDAR2A; set-up: species or system rat; conditions: for Conclusion / % 1 mM Glycine: NMDAR2A binding profile; for % 1 mM Glycine: relative to 1 mM glycine; for potentiation of [3H]MK-801 binding, subtype preference in words: NR2A, FIG. 2 / FIG. 6
Sequence of NMDAR2A (Q12879 23-1464, species assumed, other chains not shown): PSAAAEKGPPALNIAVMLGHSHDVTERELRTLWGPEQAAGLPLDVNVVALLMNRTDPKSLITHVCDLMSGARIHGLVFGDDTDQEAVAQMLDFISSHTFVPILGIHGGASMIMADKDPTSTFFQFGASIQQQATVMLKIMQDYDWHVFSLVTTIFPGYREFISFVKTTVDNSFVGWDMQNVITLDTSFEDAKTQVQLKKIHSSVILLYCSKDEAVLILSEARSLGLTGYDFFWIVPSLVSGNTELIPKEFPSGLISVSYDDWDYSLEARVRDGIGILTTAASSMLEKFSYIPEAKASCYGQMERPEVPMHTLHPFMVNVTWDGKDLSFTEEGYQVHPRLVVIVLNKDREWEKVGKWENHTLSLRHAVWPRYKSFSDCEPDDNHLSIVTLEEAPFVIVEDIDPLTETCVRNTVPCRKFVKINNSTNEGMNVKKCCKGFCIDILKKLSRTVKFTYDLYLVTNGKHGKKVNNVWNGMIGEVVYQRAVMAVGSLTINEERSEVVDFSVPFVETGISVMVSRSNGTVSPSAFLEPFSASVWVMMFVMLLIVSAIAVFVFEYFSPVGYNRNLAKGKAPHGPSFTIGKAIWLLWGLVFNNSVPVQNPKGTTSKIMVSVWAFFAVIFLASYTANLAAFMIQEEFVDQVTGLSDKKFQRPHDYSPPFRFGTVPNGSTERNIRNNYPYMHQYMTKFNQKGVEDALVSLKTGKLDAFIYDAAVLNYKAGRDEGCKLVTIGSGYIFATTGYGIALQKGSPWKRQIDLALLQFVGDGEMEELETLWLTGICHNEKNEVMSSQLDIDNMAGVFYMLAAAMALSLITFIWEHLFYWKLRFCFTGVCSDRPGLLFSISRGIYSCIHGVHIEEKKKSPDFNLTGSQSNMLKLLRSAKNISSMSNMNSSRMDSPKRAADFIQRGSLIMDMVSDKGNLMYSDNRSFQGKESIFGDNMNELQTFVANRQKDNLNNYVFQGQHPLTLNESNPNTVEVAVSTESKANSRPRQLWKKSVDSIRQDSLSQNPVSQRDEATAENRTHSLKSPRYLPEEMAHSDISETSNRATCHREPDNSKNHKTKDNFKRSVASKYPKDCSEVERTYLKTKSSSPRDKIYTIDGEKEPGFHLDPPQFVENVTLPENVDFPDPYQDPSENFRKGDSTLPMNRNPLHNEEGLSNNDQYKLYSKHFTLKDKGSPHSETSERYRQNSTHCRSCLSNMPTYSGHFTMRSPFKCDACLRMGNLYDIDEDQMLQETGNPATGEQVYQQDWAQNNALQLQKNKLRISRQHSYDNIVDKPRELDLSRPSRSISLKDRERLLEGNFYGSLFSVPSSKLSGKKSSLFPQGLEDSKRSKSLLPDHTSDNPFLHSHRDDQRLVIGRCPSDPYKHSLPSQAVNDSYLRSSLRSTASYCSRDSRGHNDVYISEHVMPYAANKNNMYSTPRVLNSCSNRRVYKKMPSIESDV
Protocol: as §3, §4

[6] = tested on: Sprague Dawley rats; experiment: Porsolt forced swim test; type: in vivo, rat; conditions: compared to vehicle group
Protocol: A non-clinical in vivo pharmacology study (Porsoit assay) was performed to measure antidepressant-like effects. A negative control (0.5% sodium carboxymethyl cellulose in 0.9% sterile saline vehicle) and a positive control (Compound D) were used to compare against Compound A and Compound B. The study allowed for the construction of a dose-response curve of the effects of each compound on the Porsolt forced swim test as assessed by the rats' response (reduced floating time) during a 5-minute swimming test.
(§5) Male 2-3 month old Sprague Dawley rats were used (Harlan, Indianapolis, Ind.). Rats were housed in Lucite cages with aspen wood chip bedding, maintained on a 12:12 light:dark cycle (lights on at 5 AM), and given ad libitum access to Purina lab chow (USA) and tap water throughout the study.
The Porsolt forced swim test adapted for use in rats was performed as described by Burgdorf et al., (The long-lasting antidepressant effects of rapastinel (GLYX-13) are associated with a metaplasticity process in the medial prefrontal cortex and hippocampus. Neuroscience 308:202-211, 2015). […] Animals were videotaped, and floating time as defined as the minimal amount of effort required to keep the animals head above water was scored offline by a blinded experimenter with high inter-rater reliability (Pearson's r>0.9). […]

[7] = biological target: NMDAR2B (Homo sapiens, UniProt Q13224); experiment: Potentiation of [3H]MK-801 binding, NMDAR2B; set-up: species or system rat; conditions: for % 1 mM Glycine: relative to 1 mM glycine
Sequence of NMDAR2B (Q13224 27-1484, species assumed, other chains not shown): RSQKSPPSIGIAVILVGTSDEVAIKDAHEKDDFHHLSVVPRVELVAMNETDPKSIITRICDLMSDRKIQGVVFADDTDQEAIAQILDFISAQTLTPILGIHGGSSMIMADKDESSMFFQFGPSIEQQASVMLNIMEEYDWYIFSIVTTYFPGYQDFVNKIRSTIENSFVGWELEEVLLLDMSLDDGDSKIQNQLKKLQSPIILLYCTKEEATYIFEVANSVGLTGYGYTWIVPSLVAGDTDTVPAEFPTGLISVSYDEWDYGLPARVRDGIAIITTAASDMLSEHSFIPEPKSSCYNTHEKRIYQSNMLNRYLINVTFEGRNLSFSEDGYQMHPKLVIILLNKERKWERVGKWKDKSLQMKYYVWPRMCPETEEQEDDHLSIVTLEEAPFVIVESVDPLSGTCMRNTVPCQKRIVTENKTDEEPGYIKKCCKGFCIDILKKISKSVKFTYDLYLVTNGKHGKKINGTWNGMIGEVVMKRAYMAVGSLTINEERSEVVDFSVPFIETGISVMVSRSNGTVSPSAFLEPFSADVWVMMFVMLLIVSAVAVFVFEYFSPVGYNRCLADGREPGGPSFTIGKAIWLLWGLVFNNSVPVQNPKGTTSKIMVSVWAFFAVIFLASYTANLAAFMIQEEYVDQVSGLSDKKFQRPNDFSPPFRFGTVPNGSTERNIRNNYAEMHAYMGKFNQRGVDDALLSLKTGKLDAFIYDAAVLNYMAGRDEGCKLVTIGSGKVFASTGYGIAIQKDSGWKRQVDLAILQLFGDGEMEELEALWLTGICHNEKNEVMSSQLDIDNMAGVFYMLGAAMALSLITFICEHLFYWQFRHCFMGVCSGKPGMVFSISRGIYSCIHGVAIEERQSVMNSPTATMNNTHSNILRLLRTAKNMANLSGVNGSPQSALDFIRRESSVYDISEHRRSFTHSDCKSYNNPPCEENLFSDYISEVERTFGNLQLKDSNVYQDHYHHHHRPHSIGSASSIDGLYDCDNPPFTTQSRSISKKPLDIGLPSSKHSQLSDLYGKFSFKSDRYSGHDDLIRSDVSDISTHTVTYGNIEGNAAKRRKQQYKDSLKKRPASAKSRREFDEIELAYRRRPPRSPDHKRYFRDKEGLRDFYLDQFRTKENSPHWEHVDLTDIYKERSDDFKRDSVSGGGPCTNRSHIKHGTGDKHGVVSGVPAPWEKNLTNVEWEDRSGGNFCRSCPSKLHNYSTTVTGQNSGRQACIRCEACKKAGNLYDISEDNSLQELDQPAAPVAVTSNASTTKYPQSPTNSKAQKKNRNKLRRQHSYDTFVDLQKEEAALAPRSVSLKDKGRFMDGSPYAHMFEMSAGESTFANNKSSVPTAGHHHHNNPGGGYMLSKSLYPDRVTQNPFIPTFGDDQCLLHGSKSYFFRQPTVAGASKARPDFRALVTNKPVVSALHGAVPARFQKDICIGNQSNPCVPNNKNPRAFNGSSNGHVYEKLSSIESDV

[8] = biological target: NMDAR2C (Homo sapiens, UniProt Q14957); experiment: Potentiation of [3H]MK-801 binding, NMDAR2C; set-up: species or system rat; conditions: for % 1 mM Glycine: relative to 1 mM glycine
[9] = tested on: Sprague Dawley rats; experiment: Bennett model of mechanical analgesia (paw withdrawal threshold); type: in vivo, rat; conditions: single dose of 10 mg/kg PO; 1 hr, 24 hrs and 1 week post-dosing
Protocol: Bennett G J, Xie Y K, “A peripheral mononeuropathy in rat that produces disorders of pain sensation like those seen in man,” Pain 33:87-107, 1988. […] Vehicle animals receive the surgery and then receive vehicle rather than test compound. Animals were tested 1 hr, 24 h and 1 wk post-test compound or vehicle administration.
as §5, with “used. Harlan was the supplier for all studies.” for “used (Harlan, Indianapolis, Ind.).”
Rats were anesthetized using inhaled isoflurane (2.5%). Spared nerve injury surgery was performed as previously described (Bennett and Xie, 1988). An incision (˜1.5 cm in length) was made with a scalpel blade dorsally through skin on the right hindlimb, parallel and posterior to femur. Using a small pointed hemostat, the biceps femoris and gluteus superficialis muscles were separated. Using curved blunt forceps, the common sciatic nerve was isolated and exposed. For the mechanical analgesia studies, the whole sciatic nerve was ligated. Using hemostats/forceps and chromic gut (5-0), the nerve was loosely ligated with a square knot; 3 ligatures, 1 mm apart were placed on the nerve. […] For the thermal analgesia studies, the common peroneal and tibial branches of the sciatic nerve were ligated and cut, and the sural branch was spared. See Decosterd I, Woolf C J, “Spared nerve injury: an animal model of persistent peripheral neuropathic pain,” Pain 87:149-158, 2000. Testing occurred 1-2 weeks post-surgery.
During testing, rats were acclimated to the surface of a suspended wire mesh grid (1 cm×1 cm, with the wire being 0.3 cm in diameter) for 15-20 min. Starting from the smallest, each Von Frey filament was pressed perpendicularly to the plantar surface of the affected (ipsilateral) hindpaw until slightly bent and then held for 6 second. […]

[10] = CSF/plasma, read-out: CSF/plasma ratio
[11] = brain/plasma, read-out: Brain/plasma ratio

Kp [1, 10]	Kp [1, 11]	bioavailability [1]	oral bioavailability, in words [1]	Plasma stability, percent remaining after 60 minutes [2]	Conclusion [3]	% 1 mM Glycine [3]	potentiation of [3H]MK-801 binding, subtype preference in words [3]	Plasma stability, percent remaining after 60 minutes [4]	Conclusion [5]	% 1 mM Glycine [5]	potentiation of [3H]MK-801 binding, subtype preference in words [5]	Conclusion ([7]; NMDAR2B binding profile)	% 1 mM Glycine ([7]; NMDAR2B binding profile)	Conclusion ([8]; NMDAR2C binding profile)	% 1 mM Glycine ([8]; NMDAR2C binding profile)	SMILES	proportion able to get to the CSF and brain, in words [1]	mechanical analgesic effect in the Bennett model [9]	further results
0.65	0.19	42%	lower oral bioavailability	92%	WT2D no	0%	no binding to NR2D	100%	WT2A agonist	47.42%	highly NR2A preferring	WT2B agonist	68.22%	WT2C agonist	66.21%	CC(C)CN1CCC[C@]12CN([C@H](C(N)=O)[C@@H](C)O)C2=O [Compound A, (2S,3R)-3-hydroxy-2-((R)-5-isobutyl-1-oxo-2,5-diazaspiro[3.4]octan-2-yl)butanamide]	a higher proportion is able to get to the CSF and brain	produced a mechanical analgesic effect	floating time in the Porsolt test (antidepressant-like effect) ([6]; 10-1000 μg/kg PO, 1 h post-dosing): produces an antidepressant-like effect; EC50 ([7]; NMDAR2B binding profile, wild-type): 3.09 nM; EC50 ([8]; NMDAR2C binding profile, wild-type): 1.51 nM
0.7	0.18	38%	lower oral bioavailability	89%	agonist	66.21%	highly NR2B and NR2D preferring	100%	WT2A agonist	24.48%	lower potency in NR2A and NR2C	WT2B agonist	49.02%	WT2C agonist	85.37%	CC(C)CN1CCC[C@@]12CN([C@H](C(N)=O)[C@@H](C)O)C2=O [Compound B, (2S,3R)-3-hydroxy-2-((S)-5-isobutyl-1-oxo-2,5-diazaspiro[3.4]octan-2-yl)butanamide]	a higher proportion is able to get to the CSF and brain	produced a mechanical analgesic effect	floating time in the Porsolt test (antidepressant-like effect) ([6]; 0.1-10 μi/kg PO, 1 hour post-dosing): produces an antidepressant-like effect; potentiation of [3H]MK-801 binding, subtype preference in words ([7]; NR2B, FIG. 6): highly NR2B and NR2D preferring; potentiation of [3H]MK-801 binding, subtype preference in words ([8]; NR2C, FIG. 6): lower potency in NR2A and NR2C
